In patent publication US20240407363A1 (priority 2021, published 2024):

Assays:
X. perforans GEV-485 = assay: In vitro MIC and MBC determination in nutrient broth / on NA plates; type: cell-based; settings: three trials
Protocol: X. perforans strain GEV-485, a copper-resistant strain, was used in this study to evaluate the antibacterial activity of Hx. Working cultures of GEV-485 were retrieved from −80° C. storage vials containing bacterial suspensions in 30% glycerol (v/v). Bacterial cells were taken from the storage, streaked on nutrient agar (NA; Difco™ Sparks, MD) plates and incubated for 48 h at 28° C. and single colonies were picked and streaked on NA plates to ensure bacterial purity for further cultures. NA amended with copper (II) sulfate pentahydrate (CuSO4·5H2O) (Fisher Scientific-Hampton, NH) at 20 ppm, was used as copper tolerance selective agent. To prepare the bacterial inoculum, a single bacterial colony was streaked on NA and incubated for 24 h at 28° C. From those plates, loops of bacterial cells were collected and resuspended in SDW amended with 0.01 M MgSO4. The bacterial concentration was adjusted to ˜5.0×10^8 colony-forming units (CFU)/mL based on an optical density (OD) of 0.3 at 600 nm. The in vitro studies were conducted to determine the minimum inhibitory concentration (MIC), minimum bactericidal concentration (MBC), and the antibacterial activity at different time points.
To determine MIC of Hx against X. perforans GEV-485, individual 96-well plates containing 100 μL of nutrient broth (NB) with varied copper and Hx concentrations were inoculated with 100 μL of the GEV-485 suspension at the concentration of 1.0×10^8 CFU/mL. The final chemical concentrations on the wells were 16, 32, 64, 128, 256, 512, 1024, 2048, 4096 and 8192 mg/L. Three wells with 100 µL of NB and 100 μL of the bacterial suspension were the controls. Solutions in all wells were thoroughly mixed by pipetting. The plate was, then, covered with a lid and incubated under stationary conditions at 28° C. for 24 h. The value of MIC for Hx and copper was determined as the minimum concentration (mg/L), at which the bacterial growth was inhibited (the solution was clear), among all tested concentrations of each chemical. After MIC was determined, an aliquot of 20 μL of the solution from the wells that gave a clear solution was plated on NA. […] The MBC was determined as the minimum concentration, at which >99.9% of the initial bacterial populations were killed and no visible growth of the bacterium was observed on the NA plates among all tested concentrations of antimicrobial agents. The experiment was repeated two more times, with three replications for each treatment.

Xanthomonas perforans = assay: Field trials on piperidine and pyrrolidine, bacterial spot of tomato, foliar spray; type: in vivo; settings: for AUDPC / BS last rating of bacterial spot severity / YIELD: foliar spray at the concentration given with each treatment; for increase of marketable tomato fruit yield compared to the untreated control (CK) / bacterial spot disease severity and AUDPC compared to the untreated control (CK): pyrrolidine at 128 mg/ml; for bacterial spot disease severity and AUDPC compared to the untreated control (CK): foliar sprays, both independent trials, 2021-2022
Description: Tomato seedlings were transplanted in fall for the first trial (trial 1) and spring for the second trial (trial 2). Treatments were started about two weeks after transplanting following weekly applications for a total of eight weeks. Tomato plants were inoculated with the pathogen Xanthomonas perforans (1-5×10^6 cfu/ml) the following day in the afternoon after the third treatment. Disease severity was rated weekly when bacterial spot symptoms were observed, and area under the disease progress curve (AUDPC) was calculated. Tomato fruit were harvested two to three times for each trial and graded according to the USDA standard. Total fruit yield in each treatment and the untreated control (CK) was subjected to statistical analysis using SAS (version 9.2, SAS Institute Inc., Cary, NC, USA). Disease severity of last rating and AUDPC from each trial were analyzed and presented.
All treatments were applied through a foliar spray at specified concentrations. Piperidine and pyrrolidine were evaluated in two independent trials. Tomato cultivar was ‘Red bounty’ in trial 1, and ‘Varsity’ in trial 2.

[1] = tested on: X. perforans (a copper-resistant strain QL); assay: Greenhouse experiment, bacterial spot of tomato (cv. FL 47), compounds sprayed approx. 2 h before inoculation; type: in vivo; settings: for BS1 average disease severity of bacterial spot on two mostly infected leaves / WHOLE1 disease severity over the whole plant: 10 d after inoculation; for BS2 average disease severity of bacterial spot on two mostly infected leaves / WHOLE2 disease severity over the whole plant: 12 d after inoculation; for BS3 average disease severity of bacterial spot on two mostly infected leaves / WHOLE3 disease severity over the whole plant: 14 d after inoculation; for AUDPC_BS: two mostly infected leaves, 10, 12, 14 days after inoculation; for AUDPC_WHOLE: whole plant, 10, 12, 14 days after inoculation
Protocol: Tomato (cv. FL 47) was seeded in the greenhouse (the highest temperature was set at 82° F.) and the seedlings with two fully expanded leaves (about 3 weeks after seeding) were transplanted to soilless mix in 6-inch pots. One week after transplanting, treatments with the compounds at the test concentrations were sprayed onto plants until runoff approx. 2 h before inoculation with X. perforans. Untreated plants were used as the control (CK). There were five plants in each treatment and one plant served as one replicate. All plants were inoculated by spraying a bacterial suspension of X. perforans (a copper-resistant strain QL) at 1×10^8 CFU/ml until runoff. Inoculated plants were incubated in a moist chamber overnight (approx. 18 h) to ensure and promote infection by X. perforans. Then the inoculated plants were taken out and placed randomly on a bench inside the greenhouse for disease development. Plants were sprayed with mist periodically to stimulate disease development. When lesions on the leaves were apparent, the percentage of leaf area covered by the lesions, either for the two mostly infected leaves or the whole plant, was rated and recorded for each treatment. Disease rating was conducted at least two times. The area under the disease progress curve (AUDPC) was calculated for each treatment to reflect the disease development over a period if disease rating was carried out three times or more.

[2] = first value named of two independent trials, piperidine at 64 mg/ml
[3] = second value named of two independent trials, piperidine at 64 mg/ml

Row | Molecule | AUDPC (Xanthomonas perforans; Trial 1, cv. Red bounty) | BS last rating of bacterial spot severity (Xanthomonas perforans; Trial 1, cv. Red bounty) [b %] | YIELD (Xanthomonas perforans; Trial 1, cv. Red bounty) [a kg/plant] | AUDPC (Xanthomonas perforans; Trial 2, cv. Varsity) [b] | BS last rating of bacterial spot severity (Xanthomonas perforans; Trial 2, cv. Varsity) [b %] | YIELD (Xanthomonas perforans; Trial 2, cv. Varsity) [a kg/plant] | increase of marketable tomato fruit yield compared to the untreated control (CK) (Xanthomonas perforans; [2]) [%] | bacterial spot disease severity and AUDPC compared to the untreated control (CK) (Xanthomonas perforans; piperidine at 64 mg/ml) | increase of marketable tomato fruit yield compared to the untreated control (CK) (Xanthomonas perforans; [3]) [%] | BS1 average disease severity of bacterial spot on two mostly infected leaves ([1]; 64 mg/L = 64 ppm) | WHOLE1 disease severity over the whole plant ([1]; 64 mg/L = 64 ppm) | BS2 average disease severity of bacterial spot on two mostly infected leaves ([1]; 64 mg/L = 64 ppm) | WHOLE2 disease severity over the whole plant ([1]; 64 mg/L = 64 ppm) | BS3 average disease severity of bacterial spot on two mostly infected leaves ([1]; 64 mg/L = 64 ppm) | WHOLE3 disease severity over the whole plant ([1]; 64 mg/L = 64 ppm) | AUDPC_BS ([1]; 64 mg/L = 64 ppm) | AUDPC_WHOLE ([1]; 64 mg/L = 64 ppm) | further results
1 | O=S(=O)([O-])[O-].[Cu+2] [Copper (CuSO4), CuSO4, reference compound] |  |  |  |  |  |  |  |  |  |  |  |  |  |  |  |  |  | MIC (X. perforans GEV-485; 28° C. for 24 h, copper-resistant strain): 1024 µg/mL; MBC (X. perforans GEV-485; >99.9% of initial bacterial populations killed, no visible growth on NA): 2048 µg/mL
2 | C1CCNCC1 [Piperidine, piperidine] | 495.9 bc | 34.6 | 3.88 | 394.9 | 23.8 | 4.38 | 15.5 | significantly (P<0.05) reduced bacterial spot disease severity at the last rating and the overall disease progress | 17.6 | 30.0 a | 10.0 ab | 36.0 a | 28.0 a | 54.0 a | 32.0 a | 546.0 a | 343.0 a | effect on disease reduction compared to ManKocide at the label rate of 2.1 mg/ml (Xanthomonas perforans; piperidine at 64 mg/ml, foliar spray): even better than ManKocide®; BS1 average disease severity of bacterial spot on two mostly infected leaves ([1]; 32 mg/L = 32 ppm): 24.5 a; WHOLE1 disease severity over the whole plant ([1]; 32 mg/L = 32 ppm): 14.2 a; BS2 average disease severity of bacterial spot on two mostly infected leaves ([1]; 32 mg/L = 32 ppm): 33.0 a; WHOLE2 disease severity over the whole plant ([1]; 32 mg/L = 32 ppm): 26.0 ab; BS3 average disease severity of bacterial spot on two mostly infected leaves ([1]; 32 mg/L = 32 ppm): 35.0 b; WHOLE3 disease severity over the whole plant ([1]; 32 mg/L = 32 ppm): 26.0 ab; bacterial spot disease compared to CK ([1]; at 32 and 64 mg/L alone): failed to reduce the disease; AUDPC_BS ([1]; 32 mg/L = 32 ppm): 439.3 b; AUDPC_WHOLE ([1]; 32 mg/L = 32 ppm): 322.7 ab
3 | pyrrolidine | 466.1 c | 31.7 | 3.95 | 401.8 | 23.1 | 3.99 | 15.9 | significantly (P<0.05) reduced bacterial spot disease severity at the last rating and the overall disease progress | 5.6 | 14.0 bc | 5.1 bc | 15.2 bc | 7.5 cde | 17.5 c | 5.3 c | 219.6 c | 88.7 days | BS1 average disease severity of bacterial spot on two mostly infected leaves ([1]; 128 mg/L = 128 ppm): 7.5 c; WHOLE1 disease severity over the whole plant ([1]; 128 mg/L = 128 ppm): 1.5 c; BS2 average disease severity of bacterial spot on two mostly infected leaves ([1]; 128 mg/L = 128 ppm): 9.0 c; WHOLE2 disease severity over the whole plant ([1]; 128 mg/L = 128 ppm): 1.8 de; BS3 average disease severity of bacterial spot on two mostly infected leaves ([1]; 128 mg/L = 128 ppm): 11.0 c; WHOLE3 disease severity over the whole plant ([1]; 128 mg/L = 128 ppm): 3.8 c; bacterial spot disease compared to the untreated control (CK) ([1]; at 64 and 128 mg/L each): significantly (P<0.05) reduced bacterial spot disease; AUDPC_BS ([1]; 128 mg/L = 128 ppm): 127.8 cd; AUDPC_WHOLE ([1]; 128 mg/L = 128 ppm): 31.2 days
